Entries after “also recorded” stand apart in the source; their conditions may differ. Like-named read-outs stand apart in the source and are kept apart here.
Key:
[1] = 12-month treatment of ovariectomized rats with DHEA alone or with Flutamide or EM-800: bone histomorphometry, bone markers, serum lipids; assay type: in vivo, rat; details: 12 months
[2] = 9-month treatment with DHEA and/or EM-800 in the rat: urinary and serum markers of bone metabolism; assay type: in vivo
Source text: It is particularly important to indicate that the combination of DHEA and EM-800 exerted unexpected beneficial effects on important biochemical parameters of bone metabolism. […] Moreover, no effect of DHEA could be detected on daily urinary calcium or phosphorus excretion (Luo et al., 1997). EM-800 decreased the urinary hydroxyproline/creatinine ratio by 48% while, similarly to DHEA, no effect of EM-800 was seen on urinary calcium or phosphorus excretion. EM-800, moreover, had no effect on serum alkaline phosphatase activity, a marker of bone formation while DHEA increased the value of the parameter by about 75% (Luo et al., 1997).

[3] = 3-month treatment of ovariectomized rats: lumbar spine BMD, total body fat, serum cholesterol, ALP (Example 4, experiment 1); assay type: in vivo, rat; details: OVX rats, 3 months; for LUMBAR SPINE BMD / LUMBAR SPINE Prevention of Bone Loss: E2 1 mg/kg, EM-652.HCl 2.5 mg/kg, DHEA 80 mg/kg
Protocol: (§1) Ten to twelve week-old female Sprague-Dawley rats (Crl:CD(SD)Br) (Charles River Laboratory, St-Constant, Canada) weighing approximately 220-270 g at start of treatment were used. The animals were acclimatized to the environmental conditions (temperature: 22±3° C.; humidity: 50±20%; 12-h light-12-h dark cycles, lights on at 07:15 h) for at least 1 week before starting the experiments. The animals were housed individually and were allowed free access to tap water and a pelleted certified rodent feed (Lab Diet 5002, Ralston Purina, St-Louis, Mo.). Experiments were conducted in an animal facility approved by the Canadian Council on Animal Care (CCAC) and the Association for Assessment and Accreditation of Laboratory Animal Care (AAALAC) in accordance with the CCAC Guide for Care and Use of Experimental Animals.
(§2) On day 1 of the study, the animals of the appropriate groups were bilaterally ovariectomized (OVX) under isoflurane anesthesia. The DHEA was applied topically on the dorsal skin as a solution in 50% ethanol-50% propylene glycol while the other tested compounds were administered as suspension in 0.4% methylcellulose by oral gavage. Treatments were initiated on day 2 of the study and were performed once daily during 3 months.
After 3 months (experiment 1) or 26 weeks (experiment 2) of treatment, individual rats under Isoflurane anesthesia had their whole body skeleton and lumbar spine scanned using dual energy x-ray absorptiometry (DEXA; QDR 4500A, Hologic, Waltham, Mass.) and a Regional High Resolution Scan software. The bone mineral density (BMD) of the lumbar spine (vertebrae L2 to L4) and the total body composition (fat percentage) were determined.
After 3 months (experiment 1) or 26 weeks (experiment 2) of treatment, blood samples were collected at the jugular vein from overnight fasted animals (under Isoflurane anesthesia). Samples were processed for serum preparation and frozen at −80° C. until assay. Serum cholesterol levels and alkaline phospatase activity (ALP) were determined using the Boehringer Mannheim Diagnostic Hitachi 911 Analyzer (Boehringer Mannheim Diagnostic Laboratory Systems).

[4] = 5-week treatment of ovariectomized rats with SERMs alone or with DHEA: BMD of lumbar spine, femur, tibia (Example 5); assay type: in vivo, rat; details: OVX rats, 5 weeks; for LUMBAR SPINE (L2-L4) BMD / LUMBAR SPINE (L2-L4) Prevention of Bone Loss: SERMs 2.5 mg/kg, DHEA 80 mg/kg
Protocol: as §1
as §2, with “(Ovx)” for “(OVX)”, “the” for “the other”, “SERMs” for “compounds”, “5 weeks.” for “3 months.”
After 5 weeks of treatment, individual rats under Isoflurane anesthesia had their lumbar spine, femur and tibia scanned using dual energy x-ray absorptiometry (DEXA; QDR 4500A, Hologic, Waltham, Mass.) and a Regional High Resolution Scan software. The bone mineral density (BMD) of the lumbar spine (vertebrae L2 to L4), distal femoral metaphysis (DFM) and proximal tibial metaphysis (PTM) were determined.

[5] = system: MCF-7 human breast cancer cells; assay: Proliferation (DNA content) of human breast cancer MCF-7 cells (Example 7); assay type: cell-based; details: for IC50: Homo sapiens, read-out: Inhibition of 1 nM E2 stimulation of DNA by tested compounds IC50
Source text: MCF-7 human breast cancer cells were obtained from the American Type Culture Collection #HTB 22 at passage 147 and routinely grown in phenol red-free Dulbecco's Modified Eagle's-Ham's F12 medium, the supplements mentioned above and 5% FBS. The MCF-7 human breast adenocarcinoma cell line was derived from the pleural effusion of a patient. MCF-7 cells were used between passages 148 and 165 and subcultured weekly
Thereafter, medium was replaced with fresh medium containing the indicated concentrations of compounds diluted from 1000×stock solutions in 99% redistilled ethanol in the presence or absence of E2. Control cells received only the ethanolic vehicle (0.1% EtOH, v/v). Cells were incubated for the specified time intervals with medium changes at 2- or 3-day intervals. Cell number was determined by measurement of DNA content.
All results are expressed as means±SEM.

human Ishikawa cells = assay: Alkaline phosphatase activity in human endometrial adenocarcinoma Ishikawa cells (Example 6)
[6] = DHEA 10 mg, EM-800 75 μg, alone or combined

## C[C@]12CC[C@H](O)CC1=CC[C@@H]1[C@@H]2CC[C@]2(C)C(=O)CC[C@@H]12 [DHEA, dehydroepiandrosterone]
[1]
  reduction of serum cholesterol versus OVX control: 22%
[1]; OVX rats
  Alkaline phosphatase (serum): 201±25 IU/L
  CHOLESTEROL (serum): 1.78 ± 0.16 mmol/L
  OH-proline/creatinin (urine): 7.3±1.0 μmol/mmol
  Triglycerides (serum): 0.8 ± 0.1 mmol/L
  increase in trabecular bone number compared to ovariectomized controls: 137%
  trabecular bone number: 1.27±0.1 per mm
  trabecular bone volume of the tibia: 11.9±0.6%
[2]
  decrease of urinary hydroxyproline/creatinine ratio (marker of bone resorption): did not affect; also recorded: did not show any effect
  effect on daily urinary calcium or phosphorus excretion: no effect
  increase of serum alkaline phosphatase activity (marker of bone formation): about 75%
[2]; [6]
  Serum tALP: 198.38 ± 30.76 IU/L
  Urine HP/Cr: 14.02 ± 1.59 μmol/mmol
  Urine calcium: 25.87 ± 3.54 μmol/24 h/100 g
  Urine phosphorus: 151.41 ± 14.57 μmol/24 h/100 g
[3]
  ALP (serum alkaline phosphatase activity): 224±18 IU/L
  CHOLESTEROL (serum): 1.59 ± 0.10 mmol/L
  TOTAL FAT: 17.3 ± 1.5 %
  LUMBAR SPINE BMD: 0.2321 ± 0.0034 g/cm^2
  LUMBAR SPINE Prevention of Bone Loss: 43%
[4]
  DISTAL FEMORAL METAPHYSIS (DFM) BMD: 0.2934 ± 0.0046 g/cm^2
  DISTAL FEMORAL METAPHYSIS (DFM) Prevention of Bone Loss: 71%
  PROXIMAL TIBIAL METAPHYSIS (PFM) BMD: 0.2672 ± 0.0041 g/cm^2
  PROXIMAL TIBIAL METAPHYSIS (PFM) Prevention of Bone Loss: 42%
  LUMBAR SPINE (L2-L4) BMD: 0.2144 ± 0.0028 g/cm^2
  LUMBAR SPINE (L2-L4) Prevention of Bone Loss: 44%

## CC1=C(c2ccc(O)cc2)[C@H](c2ccc(OCCN3CCCCC3)cc2)Oc2cc(O)ccc21.Cl [EM-652.HCl, (S)-(+)-7-hydroxy-3-(4′-hydroxyphenyl)-4-methyl-2-(4″-(2′″-piperidinoethoxy)phenyl)-2H-1-benzopyran hydrochloride]
[5]; MCF7, MCF-7, Experiment 1
  IC50: 0.796 nM
[5]; MCF7, MCF-7, Experiment 2
  IC50: 0.205 nM
[5]; MCF-7, Experiment 1
  Maximal stimulation of DNA by tested compounds % of 1 nM E2 stimulation: N.S.
[5]; MCF-7, Experiment 2
  Stimulation of DNA by tested compounds % of 1 nM E2 stimulation: N.S.
[3]
  ALP (serum alkaline phosphatase activity): 91 ± 6 IU/L
  CHOLESTEROL (serum): 0.87 ± 0.04 mmol/L
  LUMBAR SPINE BMD: 0.2374 ± 0.0027 g/cm^2
  LUMBAR SPINE Prevention of Bone Loss: 65%
[3]; hydrochloride
  TOTAL FAT: completely prevented
[3]; listed as EM-652•HCl, hydrochloride
  TOTAL FAT: 23.2 ± 1.4 %
Human Ishikawa cells; Homo sapiens, Ishikawa, 120 h, read-out: Inhibition of 1 nM E2-induced stimulation of alkaline phosphatase IC50
  IC50: 1.52 ± 0.22 nM
Human Ishikawa cells; Homo sapiens, Ishikawa, 120 h, read-out: Maximal stimulation of alkaline phosphatase % of 1 nM E2 stimulation
  Emax: 1.88 ± 0.26%
Human Ishikawa cells; Ishikawa cells, 5-day incubation, 1 nM E2
  Maximal inhibition of 1 nM E2-induced stimulation of alkaline phosphatase: 98.97 ± 0.174 (18)
[4]
  DISTAL FEMORAL METAPHYSIS (DFM) BMD: 0.3008 ± 0.0055 g/cm^2
  DISTAL FEMORAL METAPHYSIS (DFM) Prevention of Bone Loss: 95%
  PROXIMAL TIBIAL METAPHYSIS (PFM) BMD: 0.2806 ± 0.0035 g/cm^2
  PROXIMAL TIBIAL METAPHYSIS (PFM) Prevention of Bone Loss: 92%
  LUMBAR SPINE (L2-L4) BMD: 0.2232 ± 0.0031 g/cm^2
  LUMBAR SPINE (L2-L4) Prevention of Bone Loss: 86%

From patent publication US11452731B2, “Method of treating and preventing loss of cognition” (ENDORECHERCHE, INC., priority 2009, dated 2022)
